Laboratory results published in patent US8759333B2, “Di-azetidinyl diamide as monoacylglycerol lipase inhibitors” (Janssen Pharmaceutica, NV, priority 2010, dated 2014).
Changes are numbered by the printed parent chain.

Assays:
hot plate = conditions: cited from earlier work
tail flick = conditions: intravenous delivery (Mechoulam et al.); cited from earlier work
[1] = molecular target: T1, wild type MGL (wt-MGLL 6H-11-313) (Homo sapiens, UniProt Q99685); assay: MGL Enzyme Activity Assay, purified wild type MGL, 4MU-B substrate; assay type: biochemical; conditions: wild type MGL 5 nM, 4MU-B 10 μM, 37° C.; read-out: MGL wild type inh IC50
T1 construct: purified wild type MGL (wt-MGLL 6H-11-313); 6H (hexahistidine) (N)
T1 sequence (Q99685 1-303): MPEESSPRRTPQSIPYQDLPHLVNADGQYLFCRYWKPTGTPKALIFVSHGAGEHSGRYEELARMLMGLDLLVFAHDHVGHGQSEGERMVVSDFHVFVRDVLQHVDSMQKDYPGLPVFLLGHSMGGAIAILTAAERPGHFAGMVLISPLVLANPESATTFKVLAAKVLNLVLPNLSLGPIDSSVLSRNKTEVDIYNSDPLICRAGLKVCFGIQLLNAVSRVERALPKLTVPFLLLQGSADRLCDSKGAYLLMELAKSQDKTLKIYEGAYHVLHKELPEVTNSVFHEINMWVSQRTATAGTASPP
Procedure: All rate-based assays were performed in black 384-well polypropylene PCR microplates (Abgene) in a total volume of 30 μL. […] Final compound concentrations ranged from 17 to 0.0003 μM.
The IC50 values for the following compounds were determined using Microsoft Office Excel from a fit of the equation to the concentration-response plot of the fractional activity as a function of inhibitor concentration.

MGL = molecular target: T2, MGL (Rattus norvegicus, UniProt Q8R431); assay: 2-AG Accumulation Assay in rat brain homogenate; assay type: biochemical; conditions: percent of vehicle; for activity at 1 µM: compound @1 µM, read-out: Rat Brain 2AG % VehCntrl (%) @1 µM; for activity at 10 µM: compound @10 µM, read-out: Rat Brain 2AG % VehCntrl (%) @10 µM
T2 construct: one g rat brain was homogenized using a Polytron homogenizer; from tissue; host or cells: rat brain homogenate
T2 sequence (Q8R431 1-303): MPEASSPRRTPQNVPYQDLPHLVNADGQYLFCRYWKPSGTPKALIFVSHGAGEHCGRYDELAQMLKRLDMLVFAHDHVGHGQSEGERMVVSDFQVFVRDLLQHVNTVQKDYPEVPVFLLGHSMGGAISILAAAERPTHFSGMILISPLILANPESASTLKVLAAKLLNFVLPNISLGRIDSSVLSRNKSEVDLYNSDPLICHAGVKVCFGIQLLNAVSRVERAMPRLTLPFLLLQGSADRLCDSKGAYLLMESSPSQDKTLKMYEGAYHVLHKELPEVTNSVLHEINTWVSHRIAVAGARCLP

mutant MGL = molecular target: T3, mutant MGL (Homo sapiens, UniProt Q99685, L169S/L176S); assay: MGL ThermoFluor Assay - Mutant; assay type: binding; conditions: 0.07 mg/ml mutant MGL, 100 μM ANS, pH 7.0
T3 construct: purified mutant MGL (mut-MGLL 11-313 L179S L186S)
T3 sequence (Q99685 1-303 L169S/L176S): T1 sequence (Q99685 1-303) with L169S, L176S
Procedure, shortened: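 Thermal-shift binding with 0.07 mg/ml L169S/L176S mutant MGL, 100 μM 1,8-ANS, 200 mM NaCl, 0.001% Tween-20, 50 mM PIPES pH 7.0, heated 40–90 °C at 1 °C/min.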

[2] = molecular target: T4, mutant MGL (mut-MGLL 11-313 L179S L186S) (Homo sapiens, UniProt Q99685, L169S/L176S); assay: MGL Enzyme Activity Assay, purified mutant MGL, 4MU-B substrate; assay type: biochemical; conditions: mutant MGL 5 nM, 4MU-B 10 μM, 37° C.; read-out: MGL mutant inh IC50
T4 construct: purified mutant MGL (mut-MGLL 11-313 L179S L186S)
T4 sequence (Q99685 1-303 L169S/L176S): T1 sequence (Q99685 1-303) with L169S, L176S
Procedure, shortened: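 Purified mutant MGL (5 nM final) with 10 μM 4MU-B in 20 mM PIPES pH 7.0, 150 mM NaCl, 0.001% Tween 20; compounds 17 to 0.0003 μM final. Fluorescence (ex 335/em 440 nm) followed 5 min at 37 °C; IC50 from fit of fractional activity versus inhibitor concentration.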

[3] = tested on: CFA-Induced Paw Radiant Heat Hypersensitivity; assay: CFA-Induced Paw Radiant Heat Hypersensitivity; assay type: in vivo; conditions: rat, HPβCD; for inhibition in vivo at 10 mg/kg / inhibition in vivo at 30 mg/kg: po, 5 h, group mean values, read-out: Method 1: peak % reversal; for Method 2: peak % reversal: individual animal values
Procedure: Each rat was placed in a test chamber on a warm glass surface and allowed to acclimate for approximately 10 min. A radiant thermal stimulus (beam of light) was focused through the glass onto the plantar surface of each hind paw in turn. The thermal stimulus was automatically shut off by a photoelectric relay when the paw was moved or when the cut-off time was reached (20 sec for radiant heat at ˜5 amps). An initial (baseline) response latency to the thermal stimulus was recorded for each animal prior to the injection of complete Freund's adjuvant (CFA). Twenty-four hours following intraplantar CFA injection, the response latency of the animal to the thermal stimulus was re-evaluated and compared to the animal's baseline response time. […] Immediately following the post-CFA latency assessment, the indicated test compound or vehicle was administered orally. Post-compound treatment withdrawal latencies were assessed at fixed time intervals, typically 30, 60, 120, 180, and 300 min.
The percent reversal (% R) of hypersensitivity was calculated in one of two different ways:
1) using group mean values or 2) using individual animal values. More specifically:
Method 1. For all compounds, the % R of hypersensitivity was calculated using the mean value for groups of animals at each time point according to the following formula: % reversal=[(group treatment response−group CFA response)/(group baseline response−group CFA response)]×100 Results were given for the maximum % reversal observed for each compound at any time point tested.
Method 2. For some compounds, the % R of hypersensitivity was calculated separately for each animal according to the following formula: % reversal=[(individual treatment response−individual CFA response)/(individual baseline response−individual CFA response)]×100.
Results are given as a mean of the maximum % reversal values calculated for each individual animal.

[4] = tested on: murine model of acute inflammation; conditions: murine model of acute inflammation (Comelli et al.); cited from earlier work
[5] = 10 mg/kg p.o., last time point 300 min
[6] = 30 mg/kg p.o., last time point 300 min (180 min for Cpd 17, 77)

Row | SMILES | analgesia in hot plate assay, given alone (hot plate; 2-AG given alone (Ben-Shabat et al.)) | analgesia in hot plate assay (hot plate; intravenous delivery (Lichtman et al.)) | analgesia in tail flick assay (tail flick) | IC50 [1] [nM] | activity at 1 µM (MGL) [%] | activity at 10 µM (MGL) [%] | Kd (mutant MGL) [nM] | IC50 [2] [nM] | inhibition in vivo at 10 mg/kg [3, 5] [%] | inhibition in vivo at 30 mg/kg [3, 6] [%] | Method 2: peak % reversal [3, 5] [%] | Method 2: peak % reversal [3, 6] [%] | antinociceptive effect [4]
1 | CCCCC/C=C\C/C=C\C/C=C\C/C=C\CCCC(=O)OC(CO)CO [2-AG, 2-arachidinoylglycerol] | not analgesic | produces analgesia | produces analgesia |  |  |  |  |  |  |  |  |  | 
2 | O=C(c1ccc(-c2ccc(C(F)(F)F)s2)cc1)N1CC(N2CC(N3Cc4ccccc4C3=O)C2)C1 [Cpd 76, 2-[1′-({4-[5-(Trifluoromethyl)thiophen-2-yl]phenyl}carbonyl)-1,3′-biazetidin-3-yl]-2,3-dihydro-1H-isoindol-1-one] |  |  |  | < 5 | 204 | 725 | 10 | 15 | 15.7 | 17.1 | 26.7 | 17.7 | 
3 | Cc1c(C(=O)N2CC(N3CC(NC(=O)c4cscn4)C3)C2)sc2cc(C(F)(F)F)ccc12 [Cpd 67, N-(1′-{[3-Methyl-6-(trifluoromethyl)-1-benzothiophen-2-yl]carbonyl}-1,3′-biazetidin-3-yl)-1,3-thiazole-4-carboxamide] |  |  |  | < 5 | 434 |  | 10.7 |  |  | 35.7 |  |  | 
4 | O=C(c1ccc2oc(-c3ccccc3)nc2c1)N1CC(N2CC(N3Cc4ccccc4C3=O)C2)C1 [Cpd 77, 2-{1′-[(2-Phenyl-1,3-benzoxazol-5-yl)carbonyl]-1,3′-biazetidin-3-yl}-2,3-dihydro-1H-isoindol-1-one] |  |  |  | 31 |  | 478 | 100 | 16 |  | 9.9 |  | 6.9 | 
5 | O=C(c1cc2cc(-c3ccccc3)ccc2s1)N1CC(N2CC(N3Cc4ccccc4C3=O)C2)C1 [Cpd 79, 2-{1′-[(5-Phenyl-1-benzothiophen-2-yl)carbonyl]-1,3′-biazetidin-3-yl}-2,3-dihydro-1H-isoindol-1-one] |  |  |  | 10 | 253 | 676 | 33.3 | 18 |  | 33.7 |  |  | 
6 | O=C(c1sc2cc(C(F)(F)F)ccc2c1Cl)N1CC(N2CC(N3Cc4ccccc4C3=O)C2)C1 [Cpd 99, 2-(1′-{[3-Chloro-6-(trifluoromethyl)-1-benzothiophen-2-yl]carbonyl}-1,3′-biazetidin-3-yl)-2,3-dihydro-1H-isoindol-1-one] |  |  |  | < 5 | 449 |  | 2.7 | < 5 |  | 27.6 |  |  | 
7 | O=C(Nc1cccc(-c2ccccc2)c1)OC1CCCCC1 [URB602] |  |  |  |  |  |  |  |  |  |  |  |  | showed an antinociceptive effect
8 | O=C(NC1CN(C2CN(C(=O)c3ccc4c(ccn4-c4ccc(C(F)(F)F)cc4)c3)C2)C1)c1nccs1 [Cpd 1, N-[1′-({1-[4-(Trifluoromethyl)phenyl]-1H-indol-5-yl}carbonyl)-1,3′-biazetidin-3-yl]-1,3-thiazole-2-carboxamide] |  |  |  | < 5 | 370 | 639 | 6 | 5 | -18.6 | 10.3 | −19.0 | 7.4 | 
9 | Cc1c(C(=O)N2CC(N3CC(NC(=O)c4nccs4)C3)C2)sc2cc(C(F)(F)F)ccc12 [Cpd 56, N-(1′-{[3-Methyl-6-(trifluoromethyl)-1-benzothiophen-2-yl]carbonyl}-1,3′-biazetidin-3-yl)-1,3-thiazole-2-carboxamide] |  |  |  | 6 | 413 |  | 2.15 |  |  | -1.3 |  |  | 
10 | O=C(c1ccc2c(ccn2-c2ccc(C(F)(F)F)cc2)c1)N1CC(N2CC(N3Cc4ccccc4C3=O)C2)C1 [Cpd 70, 2-[1′-({1-[4-(Trifluoromethyl)phenyl]-1H-indol-5-yl}carbonyl)-1,3′-biazetidin-3-yl]-2,3-dihydro-1H-isoindol-1-one] |  |  |  | < 5 | 483 | 736 | 3.5 | 8 | 28.2 | 4.7 | 22.5 | 5 | 
11 | O=C(NC1CN(C2CN(C(=O)c3ccc(-c4cccc(C(F)(F)F)c4)cc3)C2)C1)c1nccs1 [Cpd 5, N-(1′-{[3′-(Trifluoromethyl)biphenyl-4-yl]carbonyl}-1,3′-biazetidin-3-yl)-1,3-thiazole-2-carboxamide] |  |  |  | 15 | 347 | 921 | 11.2 | 7 |  | 57.4 |  | 55.8 | 
12 | O=C(NC1CN(C2CN(C(=O)c3ccc(-c4cccc(C(F)(F)F)c4)cc3)C2)C1)c1cscn1 [Cpd 2, N-(1′-{[3′-(Trifluoromethyl)biphenyl-4-yl]carbonyl}-1,3′-biazetidin-3-yl)-1,3-thiazole-4-carboxamide] |  |  |  | 8 | 620 |  | 22 | 6 |  | 47.9 |  |  | 
13 | O=C(NC1CN(C2CN(C(=O)c3ccc4nc(-c5ccccc5)oc4c3)C2)C1)c1nccs1 [Cpd 17, N-{1′-[(2-Phenyl-1,3-benzoxazol-6-yl)carbonyl]-1,3′-biazetidin-3-yl}-1,3-thiazole-2-carboxamide] |  |  |  | 37 | 355 | 486 | 333 | 48 |  | 27 |  | 31.5 | 
